# Assay results reported in patent publication US20030166703A1, “Method of treatment” (priority 2000, published 2003).
# Tested on: male Lister Hooded rats
# Test: Rat Conditioned Emotional Response (CER) Model of Anxiety
# Format: in vivo
# Conditions: 10.0 mg/kg po, 40 min pre-test, hydrochloride; for Suppression Ratio (± SEM): SR 0 = complete suppression, 0.5 = absence of fear; for Rate of responding per minute ±SEM “Dur” period / Rate of responding per minute ±SEM “Pre” period: collapsed across two test trials
# Description: Sixty male Lister Hooded rats with a mean free-feeding weight of 472 g were used. Rats were housed in cages of four and were fed a restricted diet designed to maintain rats at 85% of their free-feeding body weight. A 12:12 light/dark cycle was in effect in the colony room and the rats were trained and tested during the light part of the cycle.
# These chambers were housed in outer sound and light attenuating shells equipped with a ventilation fan which also helped to mask external noise. A single operant lever was positioned on the left side of the front panel of the operant chamber, approximately 2 cm above the grid floor. Coulbourn animal test cage grid floor shockers (E13-14) were used to deliver shock (0.4 mA, 0.5 s) to the grid floors (model E-10-10SF). […] A houselight (4.0 mA, 28V) was positioned on the front wall of the chamber, above the food magazine, approximately 1.0 cm below the ceiling.
# Once the rats had been placed on a restricted feeding regime, magazine training began. On each of the first four days of training each rat received a 30 minute session of magazine training during which pellets were delivered on a variable interval (VI) 30 s schedule. […] These sessions lasted until either 30 minutes expired or 30 food pellets were delivered. […] On the VI 90 s schedule pellets could be earned by pressing the lever, on average, once every 90 s. The houselight was off throughout all of the training sessions.
# CER training sessions were approximately 60 minutes long and usually conducted on 5 days per week. During these sessions, food pellets continued to be available on an VI 90 s schedule as before. However, the rats were now presented with two two-minute long periods of houselight illumination. The first light presentation occurred approximately 20 minutes after the start of the session (range 15-25 minutes) and the second light presentation occurred approximately 20 minutes after the first light presentation (range 15-25 minutes). Light presentations were occasionally followed by a 0.5 second 0.4 mA footshock. In a given session, footshock could follow neither, one, or both of the light presentations. On average rats would receive one shock presentation per session. The rate of lever-pressing during each of the light presentations (the ‘during’ or ‘dur’ period) and the rate of lever-pressing in the two minute interval preceding each light presentation (the ‘pre’ period) was recorded.
# Once a reliable SR was observed, occasional test sessions occurred. Test sessions were identical to training session except that footshock was never delivered following the first light presentation. Tests occurred no more frequently than once per week and a baseline training session was always carried out before each test session.
# The data were analysed with a mixed within-subject (trials) and between-subjects (drug treatment) analysis of variance (ANOVA). The ANOVA was conducted separately on the pre and during light response rates and on the suppression ratios. Significant interactions were followed by one-way analysis of variance on the data collected for each trial. Significant group effects were analysed using post-hoc Dunnett t-tests.
smiles,measurement,setting,value
"CNC1=Nc2ccc(Cl)cc2C(c2ccccc2)=[N+]([O-])C1.Cl [Chlordiazepoxide, chlordiazepoxide hydrochloride]",Suppression Ratio (± SEM),,0.37 ± 0.05
same,Suppression Ratio (± SEM),listed as CDP,significant increase in SR
same,Rate of responding per minute ±SEM “Dur” period,,13.7 ± 3.1 per minute
same,Rate of responding per minute ±SEM “Pre” period,,21.8 ± 2.9 per minute
same,Rate of responding per minute ±SEM “Dur” period,listed as CDP,significant increase in dur responding
same,Rate of responding per minute ±SEM “Pre” period,listed as chlordiazepoxide,significant increase in pre responding
